We go through five molecules from patent US11485762B2, “Compositions and methods for inhibition of L-plastin activity in osteoclasts to reduce bone loss” (University of Maryland, Baltimore, priority 2017, dated 2022).

Format in all cases: cell-based, mouse
For assay [1], the system named is osteoclasts. Kind of assay: Podosome organization in osteoclasts (actin staining). The note with it: for formation of podosomes: sNT-LPL peptides; for actin modulation involved in podosome assembly/disassembly: TAT-fused LPL peptides. The procedure: (§1) Osteoclast precursors (10^5 cells/coverslips) were cultured on glass cover slips or dentine slices. Fluorescent labeling was done in osteoclasts transduced or untransduced with TAT-proteins. HA or TAT antibody was used to identify the transduced peptides of interest; rhodamine phalloidin was used to determine actin organization (Chellaiah et al., 2000, J. Cell Biol., 148: 665-678; Chellaiah et al., 2000, J. Biol. Chem., 275: 11993-12002). Immunostained and actin stained osteoclasts were photographed with a Bio-Rad confocal laser-scanning microscope. Images were stored in TIF image format and processed by Adobe Photoshop (Adobe Systems Inc., Mountain View. Calif.).
(§2) After cells were kept in the serum-free α-MEM medium for two hours, LPL peptides of interest were added to a final concentration of 100-150 nM to cells in serum-free media (Chellaiah et al, 2000, J. Biol. Chem., 275: 11993-12002). Osteoclasts transduced with peptides of interest and added with bone particles in the presence of TNF-α for 3-4 hours or 12-14 hours were used for lysate preparations. Cells plated on coverslips and treated with peptides were used for actin staining to detect podosomes. After transduction for 30 min., osteoclasts were re-plated on dentine slices with respective LPL peptide and TNF-α for 3-6 hours or 12-14 hours. These cells were used for Actin staining with rhodamine-phalloidin or immunostaining analyses (Chellaiah et al., 2000, J. Biol. Chem., 275: 11993-12002; Chellaiah et al., 2000, J. Cell. Biol., 148: 665-678; Chellaiah et al., 2003, J Biol Chem 278: 29086-29097).
Osteoclasts were fixed with 3% paraformaldehyde for 20 minutes and permeabilized with 0.1% Triton X-100 in PBS for 5 minutes. Subsequently, osteoclasts were stained with a primary (HA or integrin αv) and secondary antibody as described (Chellaiah et al., 2003, J Biol Chem 278: 29086-29097). Actin staining was done with rhodamine-phalloidin as described (Chellaiah et al., 2000, J. Biol. Chem., 275: 11993-12002; Chellaiah et al., 2000, J. Cell Biol., 148: 665-678). Cells were washed and mounted on a slide in a mounting solution (Vector Laboratories) and sealed with nail polish. Immunostained osteoclasts were photographed with a Bio-Rad and Nikon confocal microscope. Images were stored in TIF image format and processed by Adobe Photoshop (Adobe Systems Inc., Mountain View, Calif.).

Another assay deals with endogenous LPL. Kind of assay: Phosphorylation of endogenous (cellular) LPL in osteoclasts (LPL immunoprecipitation, p-Serine immunoblot). The note with it: for inhibitory effect on the phosphorylation of cellular LPL: sNT-LPL peptides, 3-4 hours; for inhibitory effect on the phosphorylation of cellular LPL / phosphorylation of endogenous LPL: bone particles and TNF-α; for phosphorylation of endogenous LPL: TAT-fused LPL peptides 150 nM, 3 hours. The procedure: Bone particles (60-80 μm in size) were prepared as described previously (Ma et at, 2010, J. Biol. Chem., 285: 29911-29924). After flushing the marrow cells for osteoclast differentiation as described above, long bones of mice (free of cells inside and muscles outside) were washed extensively with PBS and kept in ethanol until use. Long bones were air-dried in the hood and homogenized by a mini blender. Bone particles were sieved and used for experiments. Multinucleated osteoclasts were seen from day four onward. At this time cultures were added with bone particles (100 μg/ml media) for 3-4 hours or 12-14 hours in the presence of TNF-α (20 ng/ml). Some cultures were treated with 3-5 μg/ml TNFR1 antibody. Osteoclasts were preincubated with the TNFR1 antibody for 60-90 minutes before the addition of TNF-α to enhance the blocking effect. Osteoclasts incubated with bone particles for 3-4 or 12-14 hours in the presence of TNF-α were used for lysate preparations.
(§3) The vector pTAT-HA has an N-terminal 6-histidine leader (Nagahara et al., 1998, Nature Medicine, 4:1449-1452). […] For transduction with TAT-fused peptides (100-150 nM), osteoclasts were first kept in serum-free α-MEM for two hours. Afterward, TAT proteins of interest, bone particles, and TNF-α were added to cells in serum-free α-MEM Lysates were made from these cells for immunoprecipitation and immunoblotting analyses. Osteoclasts plated on dentine slices in the presence of TAT-proteins of interest and TNF-α for 3-6 hours or 12-14 hours were used for immunostaining or actin staining analyses. Osteoclast cultures treated only with TNF-α were used as controls.
Following various treatments, osteoclasts were washed three-times with cold PBS and lysed in a radioimmune precipitation buffer (RIPA; 10 mM Tris-HCl, pH 7.2, 150 mM NaCl, 1% deoxycholate, 1% Triton X-100, 0.1% SDS, 1% aprotinin, 2 mM PMSF, […], and 1% aprotinin). Cells were rocked on ice for 15 minutes and scraped off with a cell scraper. Cell lysates were centrifuged at 15,000 rpm for 5 minutes at 4° C., and the supernatant was saved. Protein contents were measured using Bio-Rad protein assay reagent. Equal amounts of lysate proteins (100-150 μg) were used for immunoprecipitations. Immunoprecipitations and Western blotting were done as described previously (Chellaiah et al., 1998, J. Biol. Chem., 273: 11908-11916; Chellaiah et al., 1996, Mol. Biol. Cell, 7: 743-753).
as §2
Following various treatments, osteoclasts were washed three times with cold PBS and lysed in a Triton-containing lysis buffer as described (Chellaiah et al., 1996, Mol. Biol. Cell, 7: 743-753). Cells were rocked on ice for 15 minutes, and scraped off with a cell scraper. Cell lysates were centrifuged at 15,000 rpm for 5 minutes, at 4° C., and the supernatant was saved. Protein contents were measured using Bio-Rad protein assay reagent. Osteoclast cultures were also subjected to a trypan blue dye (Sigma T8154) exclusion test to determine the viability of osteoclasts after various treatments. […]
Background: In western blotting, separated proteins are transferred to a membrane and probed.

The test system of assay [2] is osteoclasts. Description: Sealing ring formation in osteoclasts plated on dentine. The following applies: for formation of mature sealing rings: sNT-LPL peptides, time course to 10 hours; for number of sealing rings: dentine 10-12 hours, TNF-α. The procedure:
as §3, §1, §2
Osteoclasts were fixed with 3% paraformaldehyde for 20 minutes and permeabilized with 0.1% Triton X-100 in PBS for 5 minutes. Subsequently, osteoclasts were stained with a primary (HA or integrin αv) and secondary antibody as described (Chellaiah et al., 2003, J Biol Chem 278: 29086-29097). Actin staining was done with rhodamine-phalloidin as described (Chellaiah et al., 2000, J. Biol. Chem., 275: 11993-12002; Chellaiah et al., 2000, J. Cell Biol., 148: 665-678). […]

The subject of assay [3] is osteoclasts. Description: F-actin content by rhodamine phalloidin binding. The note with it: for F-actin content: TAT-fused LPL peptides, dentine, TNF-α, versus basal level. The procedure:
For the measurement of F-actin, osteoclasts transduced with TAT-LPL peptides of interest for 15 to 30 minutes were re-plated on dentine slices for 3 to 4 hours or 10-12 hours, respectively, in the presence of indicated TAT-fused peptides of interest and TNF-α. For each treatment four to six wells in 24 well, culture dishes were used. Cells were fixed and rhodamine phalloidin binding to F-actin was done as described (Chellaiah et al., 2000, J. Cell Biol., 148: 665-678; Chellaiah et al., 2000, J. Biol. Chem., 275: 11993-12002: Chellaiah et at, 2007, J. Biol. Chem., 282: 10104-10116),
Osteoclasts were transduced with LPL and control peptides. For each treatment four to six wells in 24 well culture dishes were used. Cells were fixed and rhodamine phalloidin binding to F-actin was done as described (Chellaiah et al., 1998, J. Biol. Chem., 273: 11908-11916; Chellaiah et al., 1996, Mol. Biol. Cell, 7: 743-753).

On to “MARGAVADEE [Peptide P2, TAT-fused sNT-LPL peptide, Ser-5 and Ser-7 substituted to Alanine (A5A7)]”, for which the formation of podosomes result in the assay with osteoclasts [1] is on record as “Neither the migration (FIG. 12A-FIG. 12C) nor the formation the podosomes (FIG. 12D) was affected”. The “inhibitory effect on the phosphorylation of cellular LPL” value (“inhibitory effect” below) with endogenous LPL is “No significant inhibitory effect”.
As for “MARGSVSDEE [Peptide P1, TAT-fused small molecular weight (10aa) amino-terminal LPL peptide, unsubstituted (S5S7)]”, the formation of podosomes result in the assay with osteoclasts [1] is on record as “Neither the migration (FIG. 12A-FIG. 12C) nor the formation the podosomes (FIG. 12D) was affected”. For the same molecule, the “formation of mature sealing rings” value with osteoclasts [2] was “abrogated”. Further, in the assay on endogenous LPL (FIG. 8B and FIG. 13B (mouse and RAW-derived osteoclasts)), the “cellular levels of LPL” value is reported as “did not change”. For the same molecule, the “inhibitory effect” value in the assay with endogenous LPL was “inhibition is significant”. Moreover, the F-actin level result with osteoclasts [3] (sNT-LPL peptides, compared with P2, P5, and P6) is “decrease was significant”.
“SRSGMVEEAD [Peptide P5, TAT-fused scrambled sNT-LPL peptide, control, reference compound]”: the formation of podosomes entry in the assay on osteoclasts [1] is reported as “Neither the migration (FIG. 12A-FIG. 12C) nor the formation the podosomes (FIG. 12D) was affected”. Besides, the “formation of mature sealing rings” value with osteoclasts [2] is on record as “time-dependent organization”. Further, the “inhibitory effect” value in the assay on endogenous LPL was “No significant inhibitory effect”.

B1: FL-LPL: HA-TAT fused full-length L-plastin protein (70-75 kDa), purified from bacterial expression vector pTAT-HA (protein, UniProt P13796 1-627, looked up)
chain: MARGSVSDEEMMELREAFAKVDTDGNGYISFNELNDLFKAACLPLPGYRVREITENLMATGDLDQDGRISFDEFIKIFHGLKSTDVAKTFRKAINKKEGICAIGGTSEQSSVGTQHSYSEEEKYAFVNWINKALENDPDCRHVIPMNPNTNDLFNAVGDGIVLCKMINLSVPDTIDERTINKKKLTPFTIQENLNLALNSASAIGCHVVNIGAEDLKEGKPYLVLGLLWQVIKIGLFADIELSRNEALIALLREGESLEDLMKLSPEELLLRWANYHLENAGCNKIGNFSTDIKDSKAYYHLLEQVAPKGDEEGVPAVVIDMSGLREKDDIQRAECMLQQAERLGCRQFVTATDVVRGNPKLNLAFIANLFNRYPALHKPENQDIDWGALEGETREERTFRNWMNSLGVNPRVNHLYSDLSDALVIFQLYEKIKVPVDWNRVNKPPYPKLGGNMKKLENCNYAVELGKNQAKFSLVGIGGQDLNEGNRTLTLALIWQLMRRYTLNILEEIGGGQKVNDDIIVNWVNETLREAKKSSSISSFKDPKISTSLPVLDLIDAIQPGSINYDLLKTENLNDDEKLNNAKYAISMARKIGARVYALPEDLVEVNPKMVMTVFACLMGKGMKRV
modifications: full-length HA-TAT tag
notes: HA-TAT fused full-length L-plastin protein (70-75 kDa), purified from bacterial expression vector pTAT-HA
With B1, the “actin modulation involved in podosome assembly/disassembly” value with osteoclasts [1] is “does not affect”. For the same molecule, the “number of sealing rings” value is “Multiple sealing rings” in the assay on osteoclasts [2] and “increased” in the assay on osteoclasts [2] (listed as PL-LPL). Moreover, the “phosphorylation of endogenous LPL” value in the assay with endogenous LPL is recorded as “basal level phosphorylation”. Besides, the F-actin content result in the assay with osteoclasts [3] was “substantial increase above the basal level”.

B2: mutated FL-LPL: TAT-fused full-length L-plastin with Ser-5 and Ser-7 mutated to Ala-5 and Ala-7 (protein, UniProt P13796 1-627, looked up, variant S5A S7A)
chain: MARGAVADEEMMELREAFAKVDTDGNGYISFNELNDLFKAACLPLPGYRVREITENLMATGDLDQDGRISFDEFIKIFHGLKSTDVAKTFRKAINKKEGICAIGGTSEQSSVGTQHSYSEEEKYAFVNWINKALENDPDCRHVIPMNPNTNDLFNAVGDGIVLCKMINLSVPDTIDERTINKKKLTPFTIQENLNLALNSASAIGCHVVNIGAEDLKEGKPYLVLGLLWQVIKIGLFADIELSRNEALIALLREGESLEDLMKLSPEELLLRWANYHLENAGCNKIGNFSTDIKDSKAYYHLLEQVAPKGDEEGVPAVVIDMSGLREKDDIQRAECMLQQAERLGCRQFVTATDVVRGNPKLNLAFIANLFNRYPALHKPENQDIDWGALEGETREERTFRNWMNSLGVNPRVNHLYSDLSDALVIFQLYEKIKVPVDWNRVNKPPYPKLGGNMKKLENCNYAVELGKNQAKFSLVGIGGQDLNEGNRTLTLALIWQLMRRYTLNILEEIGGGQKVNDDIIVNWVNETLREAKKSSSISSFKDPKISTSLPVLDLIDAIQPGSINYDLLKTENLNDDEKLNNAKYAISMARKIGARVYALPEDLVEVNPKMVMTVFACLMGKGMKRV
modifications: full-length HA-TAT tag
B2: in the assay with osteoclasts [1], the “actin modulation involved in podosome assembly/disassembly” value is recorded as “does not affect”. Besides, the “phosphorylation of endogenous LPL” value in the assay on endogenous LPL is recorded as “basal level phosphorylation”. In addition, the F-actin content result in the assay on osteoclasts [3] is listed as “more or less equal”.
